Results as given in PubChem BioAssay (NCI).
Where “and” joins values, the source holds several entries; their conditions need not be identical. Equal values may be shown once.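 Method: 48-hour compound exposure of cells in 96-well plates, five concentrations, linear interpolation of endpoints. The concentration for 50% growth inhibition is given as GI50. TGI: concentration producing complete growth inhibition.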

Tests used:
Assay in all cases: growth of human tumour cells (NCI), 48 h
786-0 renal = tested on: 786-0 renal
HCC-2998 colon = tested on: HCC-2998 colon
HOP-62 NSCLC = tested on: HOP-62 NSCLC
IGROV1 ovarian = tested on: IGROV1 ovarian
NCI-H23 lung = tested on: NCI-H23 lung
NCI-H522 lung = tested on: NCI-H522 lung
SF-295 CNS = tested on: SF-295 CNS
SNB-19 CNS = tested on: SNB-19 CNS
SR leukemia = tested on: SR leukemia

| SMILES | GI50 (786-0 renal) | TGI (786-0 renal) | GI50 (HCC-2998 colon) | TGI (HCC-2998 colon) | GI50 (HOP-62 NSCLC) | TGI (HOP-62 NSCLC) | GI50 (IGROV1 ovarian) | TGI (IGROV1 ovarian) | GI50 (NCI-H23 lung) | TGI (NCI-H23 lung) | GI50 (NCI-H522 lung) | TGI (NCI-H522 lung) | GI50 (SF-295 CNS) | TGI (SF-295 CNS) | GI50 (SNB-19 CNS) | TGI (SNB-19 CNS) | GI50 (SR leukemia) | TGI (SR leukemia) |
| --- | --- | --- | --- | --- | --- | --- | --- | --- | --- | --- | --- | --- | --- | --- | --- | --- | --- | --- |
| CCC[CH2][Sn]1([CH2]CCC)[O]CC(CN2CCOCC2)[O]1 (centres undefined) | 2.63 µM | 7.39 µM | 8.82 µM | 21.6 µM | 8.8 µM | 20.4 µM | 12.1 µM | 26.1 µM | 2.41 µM | 6.13 µM | 1.12 µM | 2.55 µM | 2.46 µM | 10.9 µM | 7.65 µM | 19.6 µM | 1.56 µM | 6.13 µM |
| COc1ccc(C(=O)CC(=O)C(=O)Nc2ccc(C)c(C)c2)cc1 | – | > 100 µM | – | > 100 µM | – | > 100 µM | – | > 100 µM | – | > 100 µM | – | > 100 µM | – | > 100 µM | – | > 100 µM | – | > 100 µM |
| COc1ccc(NC(=O)CC(=O)N2N=C(N(CCC#N)c3cccc(C)c3)CC2c2ccccc2)cc1 (centres undefined) | – | > 100 µM | – | > 100 µM | – | > 100 µM | – | > 100 µM | – | > 100 µM | – | > 100 µM | – | > 100 µM | – | > 100 µM | – | > 100 µM |
| O=C1OC(c2ccccc2)=N/C1=C\c1cc(Cl)ccc1Cl | – | > 100 µM | – | > 100 µM | – | > 100 µM | – | > 100 µM | – | > 100 µM | – | > 100 µM | – | > 100 µM | – | > 100 µM | – | – |
| COC(=O)C(Cc1ccccc1)NC(=O)Cn1ccnc1[N+](=O)[O-] (centres undefined) | – | > 100 µM | – | – | – | > 100 µM | – | > 100 µM | – | > 100 µM | – | > 100 µM | – | > 100 µM | – | > 100 µM | – | – |
| O=C(c1nc2ccc(Cl)cc2[nH]c1=O)C(O)c1ccc2c(c1)OCO2 (centres undefined) | – | > 100 µM | – | > 100 µM | – | > 100 µM | – | > 100 µM | – | > 100 µM | – | > 100 µM | – | > 100 µM | – | – | – | – |
| Cc1ccc(C(=O)C#Cc2c[nH]c(=O)[nH]c2=O)cc1 | – | 26.2 µM | – | 25.3 µM | – | 87.7 µM | – | 31.2 µM | – | 39.6 µM | – | – | – | > 100 µM | – | 43 µM | – | – |
| COc1ccc(C(=O)C(C(=O)C(=O)NC2C3CC4CC(C3)CC2C4)c2ccc(OC)cc2)cc1 (centres undefined) | – | > 100 µM | – | > 100 µM | – | > 100 µM | – | > 100 µM | – | > 100 µM | – | > 100 µM | – | > 100 µM | – | > 100 µM | – | > 100 µM |
| COC(=O)CS(=O)c1ccccc1 (centres undefined) | – | 72.4 µM | – | > 100 µM | – | 83.3 µM | – | 54 µM | – | > 100 µM | – | 30.1 µM | – | > 100 µM | – | > 100 µM | – | – |
| O=NN/C(=C1\Nc2ccc([N+](=O)[O-])cc2NC1=O)C(O)c1ccc([N+](=O)[O-])cc1 (centres undefined) | – | > 100 µM | – | > 100 µM | – | > 100 µM | – | > 100 µM | – | > 100 µM | – | > 100 µM | – | > 100 µM | – | > 100 µM | – | > 100 µM |
| CN(C)C1=NC2=S(SC(Nc3ccccc3)=N2)S1 (centres undefined) | – | > 100 µM | – | > 100 µM | – | 67.7 µM | – | > 100 µM | – | > 100 µM | – | 60.2 µM | – | 88.9 µM | – | 97.9 µM | – | > 100 µM |
| COc1ccccc1C(N)c1ccccc1 (centres undefined) | – | > 100 µM | – | > 100 µM | – | > 100 µM | – | > 100 µM | – | > 100 µM | – | > 100 µM | – | > 100 µM | – | > 100 µM | – | – |
| NC(=O)Nc1c([N+](=O)[O-])cc(C(F)(F)F)cc1[N+](=O)[O-] | – | > 100 µM | – | – | – | > 100 µM | – | > 100 µM | – | > 100 µM | – | > 100 µM | – | > 100 µM | – | > 100 µM | – | > 100 µM |
| CCC1CC(C)=CCN1S(=O)(=O)c1ccc(C)cc1 (centres undefined) | – | > 100 µM | – | – | – | 84.6 µM | – | – | – | – | – | 46.4 µM | – | > 100 µM | – | > 100 µM | – | 32.7 µM |
| COc1cc(Nc2nc3cc(C(F)(F)F)ccc3nc2-c2ccccc2)cc(OC)c1OC | – | > 100 µM | – | > 100 µM | – | 94.6 µM | – | > 100 µM | – | > 100 µM | – | 83.4 µM | – | > 100 µM | – | – | – | > 100 µM |
| COC(=O)C1=C(c2ccc3c(c2)OCO3)OC(c2ccc3c(c2)OCO3)C1 (centres undefined) | – | > 100 µM | – | > 100 µM | – | > 100 µM | – | > 100 µM | – | > 100 µM | – | – | – | > 100 µM | – | – | – | > 100 µM |
| NCCCNCCSSC/C=C\CSSCCNCCCN | – | > 100 µM | – | > 100 µM | > 100 µM and 33.2 µM | > 100 µM and 93.4 µM | – | > 100 µM | – | > 100 µM | – | 42.5 µM and 24.7 µM | 81.3 µM and 39.9 µM | > 100 µM | – | > 100 µM | – | – |
| CCOC(=O)NC(=O)c1cn(CCCOC(=O)NCCCCCCNC(=O)OCCCn2cc(C(=O)NC(=O)OCC)c(=O)[nH]c2=O)c(=O)[nH]c1=O | – | 49.9 µM | – | > 100 µM | – | > 100 µM | – | > 100 µM | – | – | – | – | – | 49.4 µM | – | 77.6 µM | – | – |
| CC1=NC(C(C)C)C(=O)O1 (centres undefined) | – | > 100 µM | – | > 100 µM | – | > 100 µM | – | > 100 µM | – | > 100 µM | – | > 100 µM | – | > 100 µM | – | > 100 µM | – | – |
| COC(=O)C1=C(CS(=O)c2ccc([N+](=O)[O-])cc2[N+](=O)[O-])ON(C)C1c1ccccc1 (centres undefined) | – | > 100 µM | – | > 56.7 µM | – | > 100 µM | – | > 100 µM | – | > 100 µM | – | 32.1 µM | – | > 100 µM | – | > 87.9 µM | – | – |
